#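 Tested at 5 concentrations; 48 h exposure; 96-well plates; endpoints linearly interpolated, else capped at highest concentration. GI50 is the concentration that inhibits growth by half.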 Active and inactive are the calls of the source. No stated cut-off is given here; in the data, active = GI50 up to about 1.1 µM and inactive = higher.
# What was measured:
# Experiment in all cases: growth of human tumour cells (NCI), 48 h
# MOLT-4 = tested on: MOLT-4
# HCC 2998 = tested on: HCC 2998
# HCT-116 = tested on: HCT-116
# A549 = tested on: A549
# MDA-N = tested on: MDA-N
# SW-620 = tested on: SW-620
# PC-3 = tested on: PC-3
# UACC-62 = tested on: UACC-62
# SK-OV-3 = tested on: SK-OV-3
# SNB-19 = tested on: SNB-19
# SF-295 = tested on: SF-295
# OVCAR-8 = tested on: OVCAR-8
# T47D = tested on: T47D
# M14 = tested on: M14
# RPMI-8226 = tested on: RPMI-8226
# HOP-62 = tested on: HOP-62
# NCI-H460 = tested on: NCI-H460
# 786-0 = tested on: 786-0
# Hs-578T = tested on: Hs-578T
# COLO 205 = tested on: COLO 205
# HCT-15 = tested on: HCT-15
# ACHN = tested on: ACHN
# RXF 393 = tested on: RXF 393
# UACC-257 = tested on: UACC-257
# SNB-75 = tested on: SNB-75
# K562 = tested on: K562
# NCI/ADR-RES = tested on: NCI/ADR-RES
# Malme-3M = tested on: Malme-3M
# SK-MEL-2 = tested on: SK-MEL-2
# CCRF-CEM = tested on: CCRF-CEM
# BT-549 = tested on: BT-549
# MDA-MB-435 = tested on: MDA-MB-435
# OVCAR-3 = tested on: OVCAR-3
# OVCAR-5 = tested on: OVCAR-5
# SK-MEL-28 = tested on: SK-MEL-28
# OVCAR-4 = tested on: OVCAR-4
# IGROV-1 = tested on: IGROV-1
# HL-60 = tested on: HL-60
# U-251 = tested on: U-251
# TK-10 = tested on: TK-10
# HT-29 = tested on: HT-29
# KM12 = tested on: KM12
# SN12C = tested on: SN12C
# EKVX = tested on: EKVX
# SF-268 = tested on: SF-268
# NCI-H23 = tested on: NCI-H23
# UO-31 = tested on: UO-31
# NCI-H226 = tested on: NCI-H226
# CAKI-1 = tested on: CAKI-1
# MDA-MB-231 = tested on: MDA-MB-231
# SK-MEL-5 = tested on: SK-MEL-5
# MCF7 = tested on: MCF7
# DU-145 = tested on: DU-145
# A498 = tested on: A498
# LOX IMVI = tested on: LOX IMVI
# NCI-H522 = tested on: NCI-H522
# HOP-92 = tested on: HOP-92
# SF-539 = tested on: SF-539
smiles,measurement,setting,value
Cc1ccc(/N=N/N(C)C(C)C(O)Cc2ccccc2)cc1 (stereo not given),GI50,MOLT-4,33.7 µM (inactive)
same,GI50,HCC 2998,53.3 µM (inactive)
same,GI50,HCT-116,49.3 µM (inactive)
same,GI50,A549,60.5 µM (inactive)
same,GI50,MDA-N,23.7 µM (inactive)
same,GI50,SW-620,64.9 µM (inactive)
same,GI50,PC-3,20.3 µM (inactive)
same,GI50,UACC-62,52.1 µM (inactive)
same,GI50,SK-OV-3,> 100 µM (inactive)
same,GI50,SNB-19,82.2 µM (inactive)
same,GI50,SF-295,38.3 µM (inactive)
same,GI50,OVCAR-8,37.7 µM (inactive)
same,GI50,T47D,33.7 µM (inactive)
same,GI50,M14,95.7 µM (inactive)
same,GI50,RPMI-8226,12.4 µM (inactive)
same,GI50,HOP-62,> 100 µM (inactive)
same,GI50,NCI-H460,36.5 µM (inactive)
same,GI50,786-0,59.4 µM (inactive)
same,GI50,Hs-578T,41.9 µM (inactive)
same,GI50,COLO 205,40.9 µM (inactive)
same,GI50,HCT-15,41 µM
same,GI50,ACHN,78.5 µM (inactive)
same,GI50,RXF 393,40.6 µM (inactive)
same,GI50,UACC-257,84.9 µM (inactive)
same,GI50,SNB-75,43.9 µM (inactive)
same,GI50,K562,39.3 µM (inactive)
same,GI50,NCI/ADR-RES,40.4 µM (inactive)
same,GI50,Malme-3M,> 100 µM (inactive)
same,GI50,SK-MEL-2,37.8 µM (inactive)
same,GI50,CCRF-CEM,32.7 µM (inactive)
same,GI50,BT-549,41 µM (inactive)
same,GI50,MDA-MB-435,35.9 µM (inactive)
same,GI50,OVCAR-3,84.3 µM (inactive)
same,GI50,OVCAR-5,> 100 µM (inactive)
same,GI50,SK-MEL-28,65.8 µM (inactive)
same,GI50,OVCAR-4,> 100 µM (inactive)
same,GI50,IGROV-1,29.2 µM (inactive)
same,GI50,HL-60,33.8 µM (inactive)
same,GI50,U-251,88.5 µM (inactive)
same,GI50,TK-10,29 µM (inactive)
same,GI50,HT-29,80.4 µM (inactive)
same,GI50,KM12,25.2 µM (inactive)
same,GI50,SN12C,27.9 µM (inactive)
same,GI50,EKVX,62.2 µM (inactive)
same,GI50,SF-268,46 µM (inactive)
same,GI50,NCI-H23,50.9 µM (inactive)
same,GI50,UO-31,18 µM (inactive)
same,GI50,NCI-H226,> 100 µM (inactive)
same,GI50,CAKI-1,93.8 µM (inactive)
same,GI50,MDA-MB-231,52.7 µM (inactive)
same,GI50,SK-MEL-5,39.6 µM (inactive)
same,GI50,MCF7,47.9 µM (inactive)
same,GI50,DU-145,52.1 µM (inactive)
CC(C)C[C@H]1[C@@H](OCc2ccccc2)COS(=O)N1[C@H](C)c1ccccc1 (stereo not given in full),GI50,MOLT-4,11.9 µM (inactive)
same,GI50,HCT-116,4.85 µM (inactive)
same,GI50,A549,17.5 µM (inactive)
same,GI50,MDA-N,24.9 µM (inactive)
same,GI50,SW-620,29.1 µM (inactive)
same,GI50,PC-3,5.79 µM (inactive)
same,GI50,UACC-62,35.1 µM (inactive)
same,GI50,SK-OV-3,14.5 µM (inactive)
same,GI50,SNB-19,30.3 µM (inactive)
same,GI50,SF-295,4 µM (inactive)
same,GI50,A498,22.7 µM (inactive)
same,GI50,OVCAR-8,26.7 µM (inactive)
same,GI50,T47D,9.55 µM (inactive)
same,GI50,M14,7.66 µM (inactive)
same,GI50,RPMI-8226,5.51 µM (inactive)
same,GI50,HOP-62,19.1 µM (inactive)
same,GI50,NCI-H460,15.3 µM (inactive)
same,GI50,786-0,13.9 µM (inactive)
same,GI50,Hs-578T,12 µM (inactive)
same,GI50,COLO 205,15.2 µM (inactive)
same,GI50,LOX IMVI,13.1 µM (inactive)
same,GI50,HCT-15,26.9 µM
same,GI50,ACHN,19.5 µM (inactive)
same,GI50,NCI-H522,4.33 µM (inactive)
same,GI50,RXF 393,13.1 µM (inactive)
same,GI50,UACC-257,16 µM (inactive)
same,GI50,SNB-75,15.6 µM (inactive)
same,GI50,K562,5.51 µM (inactive)
same,GI50,NCI/ADR-RES,18.7 µM (inactive)
same,GI50,Malme-3M,12.7 µM (inactive)
same,GI50,SK-MEL-2,15.7 µM (inactive)
same,GI50,CCRF-CEM,13.3 µM (inactive)
same,GI50,BT-549,38.1 µM (inactive)
same,GI50,MDA-MB-435,22.4 µM (inactive)
same,GI50,OVCAR-3,10.2 µM (inactive)
same,GI50,OVCAR-5,18.9 µM (inactive)
same,GI50,SK-MEL-28,37.6 µM (inactive)
same,GI50,IGROV-1,8.75 µM (inactive)
same,GI50,HL-60,8.15 µM (inactive)
same,GI50,U-251,13.3 µM (inactive)
same,GI50,TK-10,20.6 µM (inactive)
same,GI50,HT-29,6.95 µM (inactive)
same,GI50,KM12,13.2 µM (inactive)
same,GI50,SN12C,17.5 µM (inactive)
same,GI50,EKVX,28.6 µM (inactive)
same,GI50,SF-268,24.2 µM (inactive)
same,GI50,NCI-H23,26.1 µM (inactive)
same,GI50,UO-31,25.3 µM (inactive)
same,GI50,NCI-H226,10.9 µM (inactive)
same,GI50,CAKI-1,20.2 µM (inactive)
same,GI50,MDA-MB-231,20.2 µM (inactive)
same,GI50,SK-MEL-5,10.2 µM (inactive)
same,GI50,HOP-92,18.9 µM (inactive)
same,GI50,DU-145,37.8 µM (inactive)
Nc1[nH]c(=O)[nH]c(=O)c1Cc1cccc(Cl)c1,GI50,HCC 2998,56 µM (inactive)
same,GI50,HCT-116,45.5 µM (inactive)
same,GI50,A549,> 100 µM (inactive)
same,GI50,MDA-N,41 µM (inactive)
same,GI50,SW-620,96.2 µM (inactive)
same,GI50,PC-3,52.7 µM (inactive)
same,GI50,UACC-62,34.4 µM (inactive)
same,GI50,SK-OV-3,> 100 µM (inactive)
same,GI50,SNB-19,> 100 µM (inactive)
same,GI50,SF-295,> 100 µM (inactive)
same,GI50,A498,> 100 µM (inactive)
same,GI50,OVCAR-8,> 100 µM (inactive)
same,GI50,T47D,39 µM (inactive)
same,GI50,M14,84.9 µM (inactive)
same,GI50,RPMI-8226,79.6 µM (inactive)
same,GI50,HOP-62,> 100 µM (inactive)
same,GI50,NCI-H460,56.8 µM (inactive)
same,GI50,786-0,> 100 µM (inactive)
same,GI50,Hs-578T,39.6 µM (inactive)
same,GI50,COLO 205,> 100 µM (inactive)
same,GI50,LOX IMVI,54.7 µM (inactive)
same,GI50,HCT-15,84.9 µM
same,GI50,ACHN,> 100 µM (inactive)
same,GI50,NCI-H522,88.9 µM (inactive)
same,GI50,RXF 393,87.3 µM (inactive)
same,GI50,UACC-257,51.9 µM (inactive)
same,GI50,SNB-75,58.7 µM (inactive)
same,GI50,K562,63.5 µM (inactive)
same,GI50,NCI/ADR-RES,> 100 µM (inactive)
same,GI50,Malme-3M,> 100 µM (inactive)
same,GI50,SK-MEL-2,71.9 µM (inactive)
same,GI50,BT-549,75.2 µM (inactive)
same,GI50,MDA-MB-435,44 µM (inactive)
same,GI50,OVCAR-3,> 100 µM (inactive)
same,GI50,OVCAR-5,> 100 µM (inactive)
same,GI50,SK-MEL-28,> 100 µM (inactive)
same,GI50,OVCAR-4,57.9 µM (inactive)
same,GI50,IGROV-1,56.9 µM (inactive)
same,GI50,U-251,> 100 µM (inactive)
same,GI50,TK-10,63.7 µM (inactive)
same,GI50,HT-29,> 100 µM (inactive)
same,GI50,KM12,80.5 µM (inactive)
same,GI50,SN12C,> 100 µM (inactive)
same,GI50,EKVX,> 100 µM (inactive)
same,GI50,SF-268,38.3 µM (inactive)
same,GI50,NCI-H23,> 100 µM (inactive)
same,GI50,UO-31,26.2 µM (inactive)
same,GI50,NCI-H226,> 100 µM (inactive)
same,GI50,CAKI-1,> 100 µM (inactive)
same,GI50,MDA-MB-231,> 100 µM (inactive)
same,GI50,SF-539,> 100 µM (inactive)
same,GI50,HOP-92,36.3 µM (inactive)
same,GI50,MCF7,17.9 µM (inactive)

# Reference: ChEMBL document CHEMBL1201862, “PubChem BioAssay data set” (2004)
